From US20140081017A1, “Histone Deacetylase Inhibitors for Enhancing Activity of Antifungal Agents” (METHYLGENE INC., priority 2012, published 2014)
Values after ≈ are worked out from the molar mass of the structure shown. Where two headings read alike, the source gives them in different places.

Tests used:
Candida glabrata = experiment: Minimal Inhibitory Concentration (MIC) assay, broth microdilution per CLSI; format: cell-based; settings: for MIC: Nakaseomyces glabratus, read-out: Minimum Inhibitory Concentrations against Yeast Isolates, Candida glabrata;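 as to all read-outs here: two read times 24 hr and 48 hr of incubation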
Protocol: (§1) The in vitro activities of the inventive compounds (compound(s) herein) against fungi and/or yeasts were determined with isolates Candida albicans, Candida glabrata and Candida parapsilosis. The comparator compounds included fluconazole, caspofungin and amphotericin B.
(§2) The compounds were supplied as a powder, and were dissolved in dimethylsulfoxide (DMSO) the day of assay. Stock solutions were prepared at 10 mg/mL and diluted to a starting stock concentration of 2.56 mg/mL. Amphotericin B was dissolved in DMSO to a stock concentration of 2.56 mg/mL. Fluconazole was dissolved in deionized water to a stock concentration of 2.56 mg/mL. Caspofungin was received as a stock solution of 3.2 mg/mL in DMSO and was diluted to a starting stock concentration of 2.56 mg/mL.
(§3) The test organisms and reference isolates were streaked for isolation on Sabouraud agar medium (yeasts) or potato dextrose agar (fungi). Colonies were picked by swab from the medium and resuspended in the appropriate broth containing cryoprotectant. The suspensions were aliquoted into cryogenic vials and maintained at −80° C.
(§4) Prior to testing, the yeast isolates were streaked from the frozen vials onto Sabouraud dextrose agar. The plates were incubated overnight at 35° C. The fungal isolate was grown on potato dextrose agar slants and was incubated for 7-10 days at room temperature.
(§5) Both yeast and fungal isolates were tested in RPMI medium buffered with 0.165 M MOPS (3-(N-morpholino)propanesulfonic acid). The pH of the medium was adjusted to 7.0 with 1 N NaOH. The medium was sterile filtered using a 0.2 um PES (polyethersulfone) filter and stored at 4° C. until used.
(§6) The MIC assay method followed the procedure described by the Clinical and Laboratory Standards Institute (CLSI; 1, 2, 3) and employed automated liquid handlers to conduct serial dilutions and liquid transfers. Automated liquid handlers included the Multidrop 384 (Labsystems, Helsinki, Finland), Biomek 2000 and Biomek FX (Beckman Coulter, Fullerton Calif.). The wells in columns 2-12 in standard 96-well microdilution plates (Costar 3795) were filled with 150 ul of 100% DMSO. These would become the ‘mother plates’ from which ‘daughter’ or test plates would be prepared. The compounds (300 uL at 40× the desired top concentration in the test plates) were dispensed into the appropriate well in Column 1 of the mother plates. The Biomek 2000 was used to make serial 1:1 dilutions through Column 11 in the “mother plate”. The wells of Column 12 contained no compounds and were the organism growth control wells.
(§7) The daughter plates were loaded with 185 uL per well of RPMI described above using the Multidrop 384. The daughter plates were prepared using the Biomek FX which transferred 5 μL of the compound solution from each well of a mother plate to the corresponding well of the daughter plate in a single step.
(§8) Standardized inoculum of each organism was prepared per CLSI methods. For yeast isolates, colonies were picked from the streak plate and a suspension was prepared in 0.85% saline. For the fungal isolate, 1 mL of 0.85% saline was dispensed onto the potato dextrose agar slant that had been inoculated 7-10 days previously. Using a swab, a suspension of the fungus was made. After a short time to allow the heavy particles to settle out, a small quantity of the supernatant was dispensed into 0.85% saline and the suspension adjusted to equal a 0.5 McFarland turbidity standard. Both yeast and fungal isolates were diluted 1:100 in RPMI and then transferred to compartments of sterile reservoirs divided by length (Beckman Coulter). The Biomek 2000 was used to inoculate the plates. Daughter plates were placed on the Biomek 2000 work surface reversed so that inoculation took place from low to high compound concentration. The Biomek 2000 delivered 10 μL of standardized inoculum into each well. Thus, the wells of the daughter plates ultimately contained 185 uL of RPMI, 5 uL of the compound solution, and 10 uL of inoculum. […]

Candida parapsilosis = experiment: as above; format: cell-based; settings: for MIC: Lodderomyces parapsilosis, read-out: Minimum Inhibitory Concentrations against Yeast Isolates, Candida parapsilosis;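 as to all read-outs here: two read times 24 hr and 48 hr of incubation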
Protocol: as §1, §2, §3, §4, §5, §6, §7, §8

Candida albicans = experiment: as above; format: cell-based; settings: for MIC: Candida albicans, read-out: Minimum Inhibitory Concentrations against Yeast Isolates, Candida albicans;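 as to all read-outs here: two read times 24 hr and 48 hr of incubation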
Protocol: as §1, §2, §3, §4, §5, §6, §7, §8

C. glabrata = experiment: Checkerboard FIC assay in combination with fluconazole (MIC alone and in combination, FICI); format: cell-based, Candida glabrata; settings: for FICI of combination resulting in fluconazole MIC of: 2 ug/mL / FICI of combination resulting in fluconazole MIC of: 4 ug/mL / FICI of combination resulting in fluconazole MIC of: 8 ug/mL: FICI calculated using a fluconazole MIC of 16 μg/mL; for FICI of combination resulting in fluconazole MIC of: 2 ug/mL (value in parenthesis) / FICI of combination resulting in fluconazole MIC of: 4 ug/mL (value in parenthesis) / FICI of combination resulting in fluconazole MIC of: 8 ug/mL (value in parenthesis): FICI using a fluconazole MIC of 128 μg/mL; for MIC: Nakaseomyces glabratus; for Multiple of compound MIC to synergize fluconazole MIC to 2 ug/mL / Multiple of compound MIC to synergize fluconazole MIC to 4 ug/mL / Multiple of compound MIC to synergize fluconazole MIC to 8 ug/mL: concentration in combination as multiple of the compound's MIC alone; for Multiple of compound MIC to synergize fluconazole MIC to 2 ug/mL: fluconazole MIC 2 ug/mL; for Multiple of compound MIC to synergize fluconazole MIC to 4 ug/mL: fluconazole MIC 4 ug/mL; for Multiple of compound MIC to synergize fluconazole MIC to 8 ug/mL: fluconazole MIC 8 ug/mL; for Concentration of Methylgene compound to synergize fluconazole MIC to 2 ug/mL / Concentration of Methylgene compound to synergize fluconazole MIC to 4 ug/mL / Concentration of Methylgene compound to synergize fluconazole MIC to 8 ug/mL: in combination with fluconazole; for Concentration of Methylgene compound to synergize fluconazole MIC to 2 ug/mL: fluconazole MIC lowered to 2 ug/mL; for Concentration of Methylgene compound to synergize fluconazole MIC to 4 ug/mL: fluconazole MIC lowered to 4 ug/mL; for Concentration of Methylgene compound to synergize fluconazole MIC to 8 ug/mL: fluconazole MIC lowered to 8 ug/mL
Protocol: The ability of the compounds to synergize with azoles against C. glabrata was evaluated by the checkerboard assay, a common laboratory method used to evaluate synergy, antagonism, and indifference using fractional inhibitory concentrations (FICs) and FIC indices (FICI).
The test compounds were supplied as a powder and dissolved in dimethylsulfoxide (DMSO) on the day of assay. Stock solutions were prepared at 640 ug/mL. Fluconazole was dissolved in deionized water to a stock concentration of 320 ug/mL. All test articles were in solution under these conditions.
as §3, §4, §5
FIC values were determined using a broth microdilution method (CLSI; 1, 3). To prepare the test plates, automated liquid handlers (Multidrop 384, Labsystems, Helsinki, Finland; Biomek 2000 and Biomek FX, Beckman Coulter, Fullerton Calif.) were used to conduct serial dilutions and liquid transfers.
The wells of standard 96-well microdilution plates (Costar 3795) were filled with 150 uL of DMSO in columns 2-12. Three hundred microliters of each test compound was added to each well in Column 1 of the plates. The Biomek 2000 was used to make eleven 2-fold serial dilutions in each of these “test compound mother” plates. The wells of the “fluconazole mother plates” were filled with 150 uL of sterile water in rows B-H. Row A of these plates was filled with 300 uL of the fluconazole stock solution. Serial 2-fold dilutions were then prepared from top to bottom by hand, using a multichannel pipette in rows B-G. The “daughter plates” were loaded with 180 uL of RPMI using the Multidrop 384. The Biomek FX was used to transfer 5 uL of compound solution from each well of a fluconazole mother plate to the corresponding well in all of the daughter plates in a single step. Then the Biomek FX was used to transfer 5 uL of compound solution from each well of a test compound mother plate to the corresponding well of the corresponding test compound daughter plate (already containing fluconazole at the appropriate concentrations) in a single step. Row H and Column 12 each contained serial dilutions of the test agent and fluconazole alone, respectively, for determination of the MIC.
Standardized inoculum of each organism was prepared per CLSI methods (CLSI; 1, 3). For yeast isolates, colonies were picked from the primary plate and a suspension was prepared in 0.85% saline to equal a 0.5 McFarland turbidity standard. For the fungal isolate, 1 mL of 0.85% saline was dispensed onto a potato dextrose agar slant onto which the isolate had been inoculated 7-10 days previously. Using a swab, a suspension of the fungus was made. After a short time to allow the heavy particles to settle out, a small quantity of the supernatant was dispensed into 0.85% saline and the suspension was adjusted to equal a 0.5 McFarland turbidity standard. Both yeast and fungal isolates were diluted 1:100 in RPMI and then transferred to compartments of sterile reservoirs divided by length (Beckman Coulter). The Biomek 2000 was used to inoculate the plates. […]

[1] = 24 hr reading (first value of cell 24 hr/48 hr)
[2] = 48 hr reading (second value of cell 24 hr/48 hr)
[3] = MIC of the example compound alone against C. glabrata in the checkerboard assay, approximately 48 hr, read-out: Methylgene MIC
[4] = test compound alone, C. glabrata, approx. 48 hr at 35° C., read-out: Compound MIC

Row | Compound | FICI of combination resulting in fluconazole MIC of: 2 ug/mL (C. glabrata; C. glabrata) | FICI of combination resulting in fluconazole MIC of: 4 ug/mL (C. glabrata; C. glabrata) | FICI of combination resulting in fluconazole MIC of: 8 ug/mL (C. glabrata; C. glabrata) | FICI of combination resulting in fluconazole MIC of: 2 ug/mL (value in parenthesis) (C. glabrata; C. glabrata) | FICI of combination resulting in fluconazole MIC of: 4 ug/mL (value in parenthesis) (C. glabrata; C. glabrata) | FICI of combination resulting in fluconazole MIC of: 8 ug/mL (value in parenthesis) (C. glabrata; C. glabrata) | MIC (C. glabrata; [3]) [µg/mL] | MIC (C. glabrata; [4]) [µg/mL] | Multiple of compound MIC to synergize fluconazole MIC to 2 ug/mL (C. glabrata) | Multiple of compound MIC to synergize fluconazole MIC to 4 ug/mL (C. glabrata) | Multiple of compound MIC to synergize fluconazole MIC to 8 ug/mL (C. glabrata) | Concentration of Methylgene compound to synergize fluconazole MIC to 2 ug/mL (C. glabrata; C. glabrata) [µg/mL] | Concentration of Methylgene compound to synergize fluconazole MIC to 4 ug/mL (C. glabrata; C. glabrata) [µg/mL] | Concentration of Methylgene compound to synergize fluconazole MIC to 8 ug/mL (C. glabrata; C. glabrata) [µg/mL] | MIC (Candida glabrata; [1]) [µg/mL] | MIC (Candida glabrata; [2]) [µg/mL] | MIC (Candida parapsilosis; [1]) [µg/mL] | MIC (Candida parapsilosis; [2]) [µg/mL] | MIC (Candida albicans; [1]) [µg/mL] | MIC (Candida albicans; [2]) [µg/mL] | other results
1 | C[C@@H]1[C@H](O)[C@@H](C)/C=C/C=C/C=C/C=C/C=C/C=C/C=C/[C@H](O[C@@H]2O[C@H](C)[C@@H](O)[C@H](N)[C@@H]2O)C[C@@H]2O[C@](O)(C[C@@H](O)C[C@@H](O)[C@H](O)CC[C@@H](O)C[C@@H](O)CC(=O)O[C@H]1C)C[C@H](O)[C@H]2C(=O)O [Amphotericin B, reference compound] | – | – | – | – | – | – | – | – | – | – | – | – | – | – | – | – | – | – | – | – | Minimum Inhibitory Concentrations against Yeast Isolates, Candida glabrata (Candida glabrata; [1]): < 0.06 µg/mL; Minimum Inhibitory Concentrations against Yeast Isolates, Candida glabrata (Candida glabrata; [2]): 0.5 µg/mL; Minimum Inhibitory Concentrations against Yeast Isolates, Candida parapsilosis (Candida parapsilosis; [1]): 0.25 µg/mL; Minimum Inhibitory Concentrations against Yeast Isolates, Candida parapsilosis (Candida parapsilosis; [2]): 0.5 µg/mL; Minimum Inhibitory Concentrations against Yeast Isolates, Candida albicans (Candida albicans; [1]): < 0.06 µg/mL; Minimum Inhibitory Concentrations against Yeast Isolates, Candida albicans (Candida albicans; [2]): 0.25 µg/mL
2 | O=C(Cc1csc(CCCCc2ccccc2)n1)NO [Example 1, N-hydroxy-2-(2-(4-phenylbutyl)thiazol-4-yl)acetamide] | 0.625 | 0.500 | 0.625 | 0.516 | 0.281 | 0.188 | 8 | 8 | (½x) | (¼x) | (⅛x) | 4 | 2 | 1 | > 64 | > 64 | 32 (≈ 110 µM) | 32 (≈ 110 µM) | 32 (≈ 110 µM) | 32 (≈ 110 µM) | –
3 | O=C(Cc1cnc(CCCCc2ccccc2)s1)NO [Example 2, N-hydroxy-2-(2-(4-phenylbutyl)thiazol-5-yl)acetamide] | 0.375 | 0.500 | 0.625 | 0.266 | 0.281 | 0.188 | 16 | 16 | (¼x) | (¼x) | (⅛x) | 4 | 4 | 2 | > 64 | > 64 | 64 (≈ 220 µM) | 64 (≈ 220 µM) | 64 (≈ 220 µM) | 64 (≈ 220 µM) | –
4 | CN(C)CCCOc1ccc(CCCCc2ccc(CC(=O)NO)cc2)cc1 [Example 17, 2-(4-(4-(4-(3-(dimethylamino)propoxy)phenyl)butyl)phe-nyl)-N-hydroxyacetamide] | – | – | – | – | – | – | – | – | – | – | – | – | – | – | > 64 | > 64 | > 64 | > 64 | > 64 | > 64 | –
5 | O=C(Cc1ccc(CCCCc2ccc(OCCN3CCCC3)cc2)cc1)NO [Example 18, N-hydroxy-2-(4-(4-(4-(2-(pyrrolidin-1-yl)ethoxy)phenyl)butyl)phenyl)acetamide] | – | – | – | – | – | – | – | – | – | – | – | – | – | – | > 64 | > 64 | > 64 | > 64 | > 64 | > 64 | –
6 | O=C(Cc1ccc(CCCCc2ccccc2)o1)NO [Example 62, N-hydroxy-2-(5-(4-phenylbutyl)furan-2-yl)acetamide] | – | – | – | – | – | – | – | – | – | – | – | – | – | – | 32 (≈ 117 µM) | 32 (≈ 117 µM) | 32 (≈ 117 µM) | 32 (≈ 117 µM) | 32 (≈ 117 µM) | 32 (≈ 117 µM) | –
